The results in this text go back to patent US20260184725A1, “CYCLIC 2-AMINOPYRIMIDINE COMPOUND AND PHARMACEUTICAL COMPOSITION AND USE THEREOF” (SHANGHAI INSTITUTE OF ORGANIC CHEMISTRY, CHINESE ACADEMY OF …, priority 2023, published 2026).

Common to all, as to type: biochemical
One experiment addresses T1, EGFR^19del/T790M/C797S (Homo sapiens, UniProt P00533, T790M/C797S, form not given).
T1 construct: fused on or other part: Probably a GST tag on the cytoplasmic fragment, as in the vendor's product
As to the kind of experiment: ELISA kinase activity inhibition, EGFR 19del/T790M/C797S. Conditions: ATP 5 μM, read-out: The average IC50 value (nM) for inhibiting the activity of different tyrosine kinases, EGFR^19del/T790M/C797S. How it is done: (§1) EGFR (WT) is a wild-type epidermal growth factor receptor.
(§2) Enzyme-Linked Immunosorbent Assay (ELISA) was used to detect the inhibitory effect of compounds on kinase activity.
(§3) The main experimental steps were as follows: Enzyme reaction substrate Poly (Glu, Tyr)4:1 was diluted with potassium free PBS (10 mM sodium phosphate buffer, 150 mM NaCl, pH 7.2-7.4) to 20 μg/mL, and reacted at 37° C. for 12 hours to 16 hours to coat the enzyme-linked immunosorbent assay plate. ATP solution (final concentration 5 μM) diluted with reaction buffer (50 mM HEPES pH 7.4, 50 mM MgCl2, 0.5 mM MnCl2, 0.2 mM Na3VO4, 1 mM DTT) was added to each well, followed by the test compound or solvent control, then the kinase reaction was initiated and the plate was shaken at 37° C. for 1 hour. The plate was washed three times with T-PBS, then added antibody PY99. The plate was shaken at 37° C. for 0.5 hours. After washing the plate with T-PBS, added horseradish peroxidase-labeled IgG and shaken at 37° C. for 0.5 hours. After washing the plate again, added 2 mg/mL of OPD colorimetric solution and incubated at 25° C. in the dark for 1 minutes to 10 minutes. […] The IC50 values were obtained from the inhibition curve analysis.

The target in another experiment is T2, EGFR^WT (Homo sapiens, UniProt P00533).
T2 construct: purchased Eurofins
T2 sequence (P00533 25-1210): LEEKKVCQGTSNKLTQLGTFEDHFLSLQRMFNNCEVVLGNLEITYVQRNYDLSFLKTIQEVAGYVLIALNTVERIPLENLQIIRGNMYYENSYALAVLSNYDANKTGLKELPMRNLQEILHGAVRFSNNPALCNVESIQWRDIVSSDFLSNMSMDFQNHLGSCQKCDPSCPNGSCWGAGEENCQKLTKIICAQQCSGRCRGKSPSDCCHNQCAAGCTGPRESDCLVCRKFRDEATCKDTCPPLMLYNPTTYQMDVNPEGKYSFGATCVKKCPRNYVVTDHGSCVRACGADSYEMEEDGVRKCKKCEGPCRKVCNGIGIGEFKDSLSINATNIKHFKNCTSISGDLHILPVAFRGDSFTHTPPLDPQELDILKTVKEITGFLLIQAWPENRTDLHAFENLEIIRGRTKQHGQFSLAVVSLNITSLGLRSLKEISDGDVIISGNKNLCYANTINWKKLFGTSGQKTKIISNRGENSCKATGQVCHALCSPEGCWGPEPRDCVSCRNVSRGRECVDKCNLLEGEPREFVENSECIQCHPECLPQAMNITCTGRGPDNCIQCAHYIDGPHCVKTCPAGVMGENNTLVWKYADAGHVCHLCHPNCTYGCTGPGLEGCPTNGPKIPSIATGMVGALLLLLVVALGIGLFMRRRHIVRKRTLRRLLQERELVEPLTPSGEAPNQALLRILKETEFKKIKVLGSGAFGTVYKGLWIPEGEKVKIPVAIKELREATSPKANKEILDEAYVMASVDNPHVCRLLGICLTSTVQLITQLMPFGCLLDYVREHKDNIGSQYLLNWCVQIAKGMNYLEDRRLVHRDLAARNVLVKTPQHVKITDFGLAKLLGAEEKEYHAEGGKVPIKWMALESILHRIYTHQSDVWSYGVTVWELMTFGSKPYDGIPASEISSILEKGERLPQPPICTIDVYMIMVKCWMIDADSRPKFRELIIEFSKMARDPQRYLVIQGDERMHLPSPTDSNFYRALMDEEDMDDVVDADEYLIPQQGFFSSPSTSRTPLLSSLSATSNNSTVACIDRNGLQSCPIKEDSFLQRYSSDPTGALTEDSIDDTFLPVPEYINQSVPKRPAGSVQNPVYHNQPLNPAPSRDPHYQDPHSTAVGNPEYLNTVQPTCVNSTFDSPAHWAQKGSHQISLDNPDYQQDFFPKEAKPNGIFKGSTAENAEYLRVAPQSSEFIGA
Briefly: ELISA kinase activity inhibition, wild-type EGFR. Conditions: ATP 5 μM, read-out: The average IC50 value (nM) for inhibiting the activity of different tyrosine kinases, EGFR^WT. How it is done: as §1, §2, §3
Background: An ELISA detects its analyte on a solid surface through an enzyme-linked reagent.

In another experiment the target is EGFR^L858R/T790M/C797S (Homo sapiens, UniProt P00533, C797S/L858R/T790M). As to the kind of experiment: ELISA kinase activity inhibition, EGFR L858R/T790M/C797S. Conditions: ATP 5 μM, read-out: The average IC50 value (nM) for inhibiting the activity of different tyrosine kinases, EGFR^L858R/T790M/C797S. On the procedure:
as §2, §3

Bounds are passed on as bounds.

T1 sequence (P00533 with tags, fused parts or gaps DEL746-750/T790M/C797S, form open): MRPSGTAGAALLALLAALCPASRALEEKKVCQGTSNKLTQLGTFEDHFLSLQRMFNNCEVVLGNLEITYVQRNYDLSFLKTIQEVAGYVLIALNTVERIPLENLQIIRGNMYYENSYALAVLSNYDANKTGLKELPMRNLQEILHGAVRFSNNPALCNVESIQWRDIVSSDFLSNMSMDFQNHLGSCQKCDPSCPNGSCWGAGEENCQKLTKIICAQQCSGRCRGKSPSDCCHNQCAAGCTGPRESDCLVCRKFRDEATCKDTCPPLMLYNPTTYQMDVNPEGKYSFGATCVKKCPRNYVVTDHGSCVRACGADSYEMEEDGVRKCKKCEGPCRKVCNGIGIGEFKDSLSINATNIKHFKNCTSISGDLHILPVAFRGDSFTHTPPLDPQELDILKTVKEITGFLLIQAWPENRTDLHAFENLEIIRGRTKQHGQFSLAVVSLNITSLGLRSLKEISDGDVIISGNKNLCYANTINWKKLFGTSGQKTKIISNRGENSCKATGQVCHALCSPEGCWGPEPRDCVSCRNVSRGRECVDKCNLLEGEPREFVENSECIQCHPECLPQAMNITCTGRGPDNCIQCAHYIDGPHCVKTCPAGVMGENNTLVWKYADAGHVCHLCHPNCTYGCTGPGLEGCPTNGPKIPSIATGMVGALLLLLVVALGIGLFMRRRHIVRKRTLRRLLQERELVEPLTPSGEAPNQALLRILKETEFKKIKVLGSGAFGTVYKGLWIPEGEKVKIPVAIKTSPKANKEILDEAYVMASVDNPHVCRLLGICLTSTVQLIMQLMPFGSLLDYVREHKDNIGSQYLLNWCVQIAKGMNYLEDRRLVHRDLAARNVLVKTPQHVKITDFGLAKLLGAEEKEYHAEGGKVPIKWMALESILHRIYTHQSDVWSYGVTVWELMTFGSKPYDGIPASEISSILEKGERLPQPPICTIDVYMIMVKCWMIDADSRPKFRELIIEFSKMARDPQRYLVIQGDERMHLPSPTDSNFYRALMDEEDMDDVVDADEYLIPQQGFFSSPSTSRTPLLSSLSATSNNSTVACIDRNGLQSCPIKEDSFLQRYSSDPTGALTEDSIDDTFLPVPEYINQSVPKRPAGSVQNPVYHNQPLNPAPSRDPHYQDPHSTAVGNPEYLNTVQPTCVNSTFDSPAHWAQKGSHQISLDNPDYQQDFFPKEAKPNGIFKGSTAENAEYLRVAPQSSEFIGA
Chain of EGFR^L858R/T790M/C797S (P00533 25-1210 T790M/C797S/L858R): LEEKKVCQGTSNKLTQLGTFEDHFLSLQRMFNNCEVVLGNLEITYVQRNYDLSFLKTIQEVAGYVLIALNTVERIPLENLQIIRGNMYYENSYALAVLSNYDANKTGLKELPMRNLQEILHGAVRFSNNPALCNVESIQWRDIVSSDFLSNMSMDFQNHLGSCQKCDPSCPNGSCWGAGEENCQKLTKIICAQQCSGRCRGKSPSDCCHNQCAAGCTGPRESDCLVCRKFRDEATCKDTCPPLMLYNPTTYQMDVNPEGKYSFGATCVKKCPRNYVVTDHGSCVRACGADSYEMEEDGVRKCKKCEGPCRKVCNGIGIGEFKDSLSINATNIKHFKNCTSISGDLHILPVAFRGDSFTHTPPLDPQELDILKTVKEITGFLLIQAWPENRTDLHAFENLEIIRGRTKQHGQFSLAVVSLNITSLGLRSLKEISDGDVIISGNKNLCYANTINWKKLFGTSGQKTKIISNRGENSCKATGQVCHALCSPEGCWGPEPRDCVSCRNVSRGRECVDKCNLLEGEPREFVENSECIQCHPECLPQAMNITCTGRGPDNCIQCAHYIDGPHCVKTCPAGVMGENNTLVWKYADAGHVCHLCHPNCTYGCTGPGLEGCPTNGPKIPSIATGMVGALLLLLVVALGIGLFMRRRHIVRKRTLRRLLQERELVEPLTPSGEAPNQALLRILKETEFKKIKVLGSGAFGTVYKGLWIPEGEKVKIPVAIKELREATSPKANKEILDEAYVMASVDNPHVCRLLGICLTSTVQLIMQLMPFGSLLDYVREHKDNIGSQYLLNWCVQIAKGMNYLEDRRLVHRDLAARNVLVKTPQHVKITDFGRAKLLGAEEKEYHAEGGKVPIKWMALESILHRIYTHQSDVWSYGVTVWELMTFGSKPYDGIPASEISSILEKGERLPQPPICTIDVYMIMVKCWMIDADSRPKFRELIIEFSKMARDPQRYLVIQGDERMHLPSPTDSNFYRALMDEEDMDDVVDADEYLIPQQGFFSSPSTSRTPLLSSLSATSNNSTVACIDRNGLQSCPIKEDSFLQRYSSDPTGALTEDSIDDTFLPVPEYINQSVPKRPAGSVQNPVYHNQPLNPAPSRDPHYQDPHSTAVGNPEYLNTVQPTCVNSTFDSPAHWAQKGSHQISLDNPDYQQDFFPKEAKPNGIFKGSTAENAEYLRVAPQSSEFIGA

Consider `CCS(=O)(=O)n1cc2c3ccc(cc31)OCCCn1ccc(n1)-c1cc(c(C(C)C)cc1N1CCOCC1)Nc1nccc-2n1` [FBH-3-48, (Z)-1^1-(ethylsulfonyl)-4^6-isopropyl-4^4-morpholino-1^1H,5^1H-9-oxa-3-aza-1(3,6)-indole-2(4,2)-pyrimidine-5(4,1)-pyrazole-4(1,3)-benzenacyclononaphane], for which the IC50 was 8.2 nM on EGFR^19del/T790M/C797S and greater than 1000 nM at EGFR^WT.
For `CCS(=O)(=O)n1cc2c3ccc(cc31)OCCCn1ccc(n1)-c1cc(c(C3CC3)cc1N1CCOCC1)Nc1nccc-2n1` [FBH-3-66, (Z)-4^6-cyclopropyl-1^1-(ethylsulfonyl)-4^4-morpholino-1^1H,5^1H-9-oxa-3-aza-1(3,6)-indole-2(4,2)-pyrimidine-5(4,1)-pyrazol-4(1,3)-benzenacyclononaphane], the IC50 on EGFR^19del/T790M/C797S is 33 nM; on EGFR^WT, greater than 1000 nM.
As to `CCS(=O)(=O)n1cc2c3ccc(cc31)OCCCn1ccc(n1)-c1cc(c(OC(C)C)cc1N1CCOCC1)Nc1nccc-2n1` [FBH-3-84, (Z)-1^1-(ethylsulfonyl)-4^6-isopropoxy-4^4-morpholinyl-1^1H,5^1H-9-oxa-3-aza-1(3,6)-indole-2(4,2)-pyrimidin-5(4,1)-pyrazol-4(1,3)-benzocyclononaphthalene], the IC50 at EGFR^19del/T790M/C797S was 267 nM; on EGFR^WT, greater than 1000 nM.
`CCS(=O)(=O)n1cc2c3ccc(cc31)OCCCn1ccc(n1)-c1cc(c(C(F)(F)F)cc1N1CCOCC1)Nc1nccc-2n1` [FBH-3-92, (Z)-1^1-(ethylsulfonyl)-4^4-morpholinyl-4^6-(trifluoromethyl)-1^1H,5^1H-9-oxa-3-aza-1(3,6)-indole-2(4,2)-pyrimidine-5(4,1)-pyrazole-4(1,3)-benzenacyclononaphane]: the IC50 at EGFR^L858R/T790M/C797S is 159 nM; on EGFR^WT, greater than 1000 nM.
For `CCS(=O)(=O)n1cc2c3ccc(cc31)OCCCn1ccc(n1)-c1cc(c(OC)cc1N1CCOCC1)Nc1nccc-2n1` [FBH-4-6, (E)-1^1-(ethylsulfonyl)-4^6-methoxy-4^4-morpholinyl-1^1H,5^1H-9-oxa-3-aza-1(3,6)-indole-2(4,2)-pyrimidine-5(3,1)-pyrazole-4(1,3)-benzocyclononaphthalene], the IC50 on EGFR^L858R/T790M/C797S was 147 nM; at EGFR^WT, greater than 1000 nM.
The corresponding values for `CCS(=O)(=O)n1cc2c3ccc(cc31)OCCCn1ccc(n1)-c1cc(c(OC3CC3)cc1N1CCOCC1)Nc1nccc-2n1` [FBH-4-24, (Z)-4^6-cyclopropoxy-1^1-(ethylsulfonyl)-4^4-morpholinyl-1^1H,5^1H-9-oxa-3-aza-1(3,6)-indole-2(4,2)-pyrimidine-5(4,1)-pyrazole-4(1,3)-benzocyclononaphthalene] are 98.5 nM and 189 nM.
Consider `CCS(=O)(=O)n1cc2c3ccc(cc31)OCCCn1ccc(n1)-c1cc(c(OC(F)(F)F)cc1N1CCOCC1)Nc1nccc-2n1` [FBH-4-48, (Z)-1^1-(ethylsulfonyl)-4^4-morpholinyl-4^6-(trifluoromethoxy)-1^1H,5^1H-9-oxa-3-aza-1(3,6)-indole-2(4,2)-pyrimidine-5(4,1)-pyrazole-4(1,3)-benzocyclononaphthalene], for which the figures for the IC50 at EGFR^L858R/T790M/C797S and on EGFR^WT were 135 nM and greater than 1000 nM, respectively.
With `CCS(=O)(=O)n1cc2c3ccc(cc31)OCCCn1cc(cn1)-c1cc(c(C)cc1N1CCOCC1)Nc1ncc(Cl)c-2n1` [HC916, 2^5-chloro-1^1-ethylsulfonyl-4^6-methyl-4^4-morpholino-1^1H,5^1H-9-oxa-3-aza-1(3,6)-indole-2(4,2)-pyrimidin-5(4,1)-pyrazol-4(1,3)-benzenacyclononaphane], the figures for the IC50 at EGFR^19del/T790M/C797S, at EGFR^L858R/T790M/C797S and at EGFR^WT were 129 nM, 167 nM and greater than 1000 nM, respectively.
`Cc1cc(N2CCOCC2)c2cc1Nc1ncc(Cl)c(n1)-c1cn(C)c3cc(ccc13)OCCCn1cc-2cn1` [HC8991, 2^5-Chloro-1^1,4^6-dimethyl-4^4-morpholino-1^1H,5^1H-9-oxa-3-aza-1(3,6)-Indole-2(4,2)-Pyrimidin-5(4,1)-Pyrazolol-4(1,3)-benzenacyclononaphane]: the figures for the IC50 on EGFR^19del/T790M/C797S and on EGFR^WT were 6.8 nM and greater than 1000 nM, respectively.
Consider `CCS(=O)(=O)n1cc2c3ccc(cc31)OCCCn1cc(cn1)-c1cc(cc(C3CCCC3)c1N1CCOCC1)Nc1ncc(Cl)c-2n1` [HC9001, 2^5-chloro-4^5-cyclopentyl-1^1-ethylsulfonyl-4^4-morpholino-1^1H,5^1H-9-oxa-3-aza-1(3,6)-indole-2(4,2)-pyrimidin-5(4,1)-pyrazol-4(1,3)-benzenacyclononaphane], for which the IC50 on EGFR^19del/T790M/C797S is 82.3 nM; on EGFR^L858R/T790M/C797S it was 183 nM; at EGFR^WT it was greater than 1000 nM.
For the molecule `C=C(C)c1cc2cc(c1N1CCOCC1)-c1cnn(c1)CCCOc1ccc3c(cn(S(=O)(=O)CC)c3c1)-c1nc(ncc1Cl)N2` [HC9002, 2^5-Chloro-1^1-ethylsulfonyl-4^4-morpholino-4^5-propenyl-1^1H,5^1H-9-oxa-3-aza-1(3,6)-indole-2(4,2)-pyrimidine-5(4,1)-pyrazole-4(1,3)-benzenacyclononaphane], the IC50 on EGFR^19del/T790M/C797S was 24.7 nM; at EGFR^L858R/T790M/C797S it was 59 nM; at EGFR^WT, greater than 1000 nM.
`CCS(=O)(=O)n1cc2c3ccc(cc31)OCCCn1cc(cn1)-c1cc(cc(C=C(C)C)c1N1CCOCC1)Nc1ncc(Cl)c-2n1` [HC9003, 2^5-Chloro-1^1-ethylsulfonyl-4^4-morpholino-4^5-2-methylpropan-1-en-1-yl-1^1H,5^1H-9-oxa-3-aza-1(3,6)-indole-2(4,2)-pyrimidine-5(4,1)-pyrazole-4(1,3)-benzenacyclononaphane]: the results for the IC50 at EGFR^19del/T790M/C797S, on EGFR^L858R/T790M/C797S and on EGFR^WT were 29 nM, 69.7 nM and greater than 1000 nM, respectively.
As for `CCS(=O)(=O)n1cc2c3ccc(cc31)OCCCn1cc(cn1)-c1cc(cc(/C=C/C(C)(C)C)c1N1CCOCC1)Nc1ncc(Cl)c-2n1` [HC9004], the values for the IC50 at EGFR^19del/T790M/C797S, at EGFR^L858R/T790M/C797S and on EGFR^WT were 195 nM, 384 nM and greater than 1000 nM, respectively.
The corresponding values for `CCS(=O)(=O)n1cc2c3ccc(cc31)OCC(C)Cn1cc(cn1)-c1cc(ccc1N1CCOCC1)Nc1ncc(Cl)c-2n1` (centres unmarked) [HC9281, 2^5-chloro-1^1-ethylsulfonyl-7-methyl-4^4-morpholino-1^1H, 5^1H-9-oxa-3-aza-1(3,6)-indole-2(4,2)-pyrimidine-5(4,1)-pyrazole-4(1,3)-benzenacyclononaphane] are 30.5 nM, 30.5 nM and greater than 1000 nM.
The corresponding values for `CCS(=O)(=O)n1cc2c3ccc(cc31)OCC1(CC1)Cn1cc(cn1)-c1cc(ccc1N1CCOCC1)Nc1ncc(Cl)c-2n1` [HC9282, (Z)-5′-Chloro-1′(Ethylsulfonyl)-4′-morpholino spiro [Cyclopropane-1,7′-9-oxa-3-aza-1(3,6)-indole-2(4,2)-pyrimidine-5(4,1)-pyrazolol-4(1,3)-benzenacyclononaphane]] are 45.8 nM, 45.8 nM and greater than 1000 nM.
As for `CCS(=O)(=O)n1cc2c3ccc(cc31)OCCCn1cc(cn1)-c1cc(c(OC)cc1N1CCOCC1)Nc1ncc(Cl)c-2n1` [HC9284, 2^5-Chloro-1^1-ethylsulfonyl-4^6-methoxy-4^4-morpholin-1^1H,5^1H-9-oxa-3-aza-1(3,6)-indole-2(4,2)-pyrimidine-5(4,1)-pyrazole-4(1,3)-benzenacyclononaphane], the IC50 at EGFR^19del/T790M/C797S was 35.1 nM; at EGFR^L858R/T790M/C797S, 35.1 nM; at EGFR^WT, 154 nM.
As to `CCS(=O)(=O)n1cc2c3ccc(cc31)OCCCn1cc(cn1)-c1cc(c(OC)cc1N1CCN(C)CC1)Nc1nccc-2n1` [HC9592, (Z)-1^1-ethylsulfonyl-4^6-methoxy-4^4-(4-methylpiperazin-1-yl)-1^1H,5^1H-9-oxa-3-aza-1(3,6)-indole-2(4,2)-pyrimidine-5(4,1) pyrazole-4(1,3)-benzenacyclononaphane], the IC50 on EGFR^19del/T790M/C797S came out at 2.9 nM; on EGFR^L858R/T790M/C797S, 1.4 nM; at EGFR^WT, 898 nM.
Take `CCS(=O)(=O)n1cc2c3ccc(cc31)OCCCn1cc(cn1)-c1cc(c(OC)cc1N1CCOC(C)C1)Nc1nccc-2n1` (centres unmarked) [WQX-2-43, (Z)-1^1-(Ethylsulfonyl)-4^6-methoxy-4^4-(2-methylmorpholinyl)-1^1H,5^1H-9-oxa-3-aza-1(3,6)-indol-2(4,2)-pyrimidin-5(4,1)-pyrazol-4(1,3)-benzocyclononane]: the results for the IC50 on EGFR^L858R/T790M/C797S and at EGFR^WT were 57.8 nM and 146 nM, respectively.
The corresponding values for `CCS(=O)(=O)n1cc2c3ccc(cc31)OCCCn1cc(cn1)-c1cc(c(OC)cc1N1CCOCC1)Nc1ncc(F)c-2n1` [WQX-2-79, (Z)-1^1-(ethylsulfonyl)-2^5-fluoro-4^6-methoxy-4^4-morpholinyl-1^1H,5^1H-9-oxa-3-aza-1(3,6)-indole-2(4,2)-pyrimidin-5(4,1)-pyrazol-4(1,3)-benzenacyclononaphane] are 102 nM and 255 nM.
